Laboratory results published in patent publication US8932627B2, “Liposomal compositions of glucocorticoid and glucocorticoid derivatives” (Yissum Research Development Company of the Hebrew …, priority 2004, dated 2015).

Columns and labels:
[1] = ex vivo stability, after 24 hours, passively loaded liposomes; cited from earlier work
[2] = State of aggregation (turbidity, light scattering at 90°) of MPS as function of pH; type: physicochemical
Experimental: Aggregation of MPS was determined from the change in turbidity measured as intensity of light scattered at 90° to excitation beam using a spectrofluormeter under conditions that MPS lack absorbance (excitation and emission at the same wavelength Ex=600 nm Em=600 nm). There is a large increase in the light scattered by MPS solution/dispersion due to formation of aggregates.
The intensity of scattered light (at 90° to the excitation), also defined as turbidity is proportional to concentration and to the size of the aggregates. [Zuidam, N. J. and Barenholz, Y., Biochim. Biophys. Acta 1368:115-128 (1998)]. The state of aggregation of MPS was tested in the following manner: To quartz cuvette MPS (2 ml) at concentration of ˜6.5 mg/ml MPS was added. The solution was tittered with HCl (1.756M) and light scattering using excitation and emission at (both at 600 nm with attenuation of 1%) and pH of the solution was monitored.

[3] = 26° C.; MPS 0.785-30 mM
Experimental: Surface tension was measured using μtrouge S (Kibron Inc., Helsinki Finland). A solution containing GC derivative (300 μL) was placed in the well after calibration and zeroing of the sensor using pure water and air. The measurement was performed at 26° C.

[4] = Precipitation of MPS by calcium ion (Ca-acetate solution); type: physicochemical; settings: pH 4.5; 600 mOsm Ca-acetate, 63° C., 5 mg/ml MPS, 40 minutes
Experimental: To 600 mOsm Ca-acetate solution at 63° C. and at different pH points MPS was added at final concentration of 5 mg/ml, then mixed solution was incubated for 40 minutes after which the solution was centrifuged and the supernatant was analyzed using HPLC.

[5] = system: Experimental Autoimmune Encephalomyelitis (EAE); experiment: Treatment of acute EAE (PLP 139-151 induced) with SSL-MPS, single injection; type: in vivo, SJL female mice; settings: 50 mg/kg BW, 1 injection day 14, follow up 3 weeks
[6] = system: Experimental Autoimmune Encephalomyelitis (EAE); experiment: Treatment of severe disease burden in acute EAE (PLP induced); type: in vivo, SJL female mice
Experimental: In order to boost the immune system Pertussis Toxin (PT) 150 ng were injected intraperitoneally (i.p.) to the mice on the first day and 48 hours later.
Each mouse was examined daily for clinical signs of EAE using the following Table 4:
For mice showing a severe disease burden (determined by summing the scores of each of the 10 mice in the group and calculating the mean score per day, according to the following equation: Σtotal score of each mouse per day/number of mice in the group) a different treatment was applied. Specifically, after immunization as described above, mice were treated with 50 mg/kg BW SSL-MPS (days 10, 14, 18) or with free-MPS 50 mg/kg BW (days 10, 14, 18) or dextrose 5% (days 10, 14, 18). For each group, the incidence, MMS=mean maximal score; MDD=mean disease duration (days); MDO=mean day of onset and mean score were determined Table 7. Further, for each group the mean clinical scores at each time point was determined (FIG. 6B) as well as the survival curve (FIG. 6A).

[7] = system: J6456 lymphoma cells (mouse T-cell lymphoma); experiment: Survival of mice injected i.p. with J6456 lymphoma cells; type: in vivo, BALB/C mice; settings: free-MPS days 5, 9, 12, SSL-MPS days 5, 9, 12, 16
Experimental: At day 1 of the experiment BALB/C mice were injected i.p. with 1 million J6456 lymphoma cells (mouse T-cell lymphoma) then mice were divided into groups and treated by i.v. injections with free-MPS or SSL-MPS according to the following treatment schedule (Table 9).

[8] = system: BCL-1 (mouse B cell lymphoid leukemia); experiment: Survival of BCL-1 tumor bearing mice; type: in vivo, BALB/C mice
Experimental: In a further assay, survival of BCL-1 (mouse B cell lymphoid leukemia) tumor bearing mice was determined. […] Then, the mice were divided into groups and treated at days 5, 9, 12, 16, by i.v. injections, with the following treatment formulations: […]
Group I—5 mg/kg BW free-MPS;
Group II—25 mg/kg BW free-MPS;
Group III—5 mg/kg BW SSL-MPS;
Group IV—50 mg/kg BW SSL-MPS.

BCL-1 lymphoma cells = experiment: Sensitivity of BCL-1 cell line to MPS; type: cell-based, mouse

triamcinolone acetonide phosphate
acidic corticosteroid retained by the liposome [1]: more than 75%

C[C@H]1C[C@@H]2[C@H]([C@@H](O)C[C@@]3(C)[C@H]2CC[C@]3(O)C(=O)COC(=O)CCC(=O)[O-])[C@@]2(C)C=CC(=O)C=C12.[Na+] [MPS, methylprednisolone sodium hemisuccinate]
state of aggregation (turbidity) ([2]; acidic pH, FIG. 1A): it aggregates
state of aggregation (turbidity) ([2]; pH 7.2, FIG. 1A): non-aggregated water soluble
surface activity (surface tension) [3]: surface active at all concentrations used
% MPS precipitated [4]: 97%
Incidence [5]: 7/9
MDD (mean disease duration) [5]: 10.9 ± 2.7 days
MDO (mean day of onset) [5]: 16.7 ± 1.83
MMS (mean maximal score) [5]: 2.35 ± 0.39
Mean Score [5]: 0.861 ± 0.105
#dead ([6]; 50 mg/kg BW days 10, 14, 18): 3
Incidence ([6]; 50 mg/kg BW days 10, 14, 18): 9/9
MDD (mean disease duration) ([6]; 50 mg/kg BW days 10, 14, 18): 10.11 ± 1.92 days
MDO (mean day of onset) ([6]; 50 mg/kg BW days 10, 14, 18): 12.67 ± 0.65
MMS (mean maximal score) ([6]; 50 mg/kg BW days 10, 14, 18): 4.44 ± 0.50
Mean Score ([6]; 50 mg/kg BW days 10, 14, 18): 2.62 ± 0.208
survival / mortality ([6]; 50 mg/kg BW days 10, 14, 18, FIG. 6A): there was mortality
mean clinical score at day 19 ([6]; 50 mg/kg BW days 10, 14, 18, FIG. 6B): ~3
Median survival ([7]; 15 mg/kg BW i.v.): 16
Median survival ([7]; 50 mg/kg BW i.v.): 16
Survival median ([8]; 5 mg/kg BW i.v. days 5, 9, 12, 16): 19
Survival median ([8]; 25 mg/kg BW i.v. days 5, 9, 12, 16): 19
sensitivity of the cell line (BCL-1 lymphoma cells; BCL-1): highly sensitive
IC50 (BCL-1 lymphoma cells; BCL-1 lymphoma cells (B cell line)): in the nmolar range
